Measured values taken from US5334588A, “Composition for inhibiting transmission of hepatitis B virus” (priority 1991, dated 1994).
Read-outs that look alike come from different tables or passages of the source.

Assays:
[1] = system: ARV-2 strain of AIDS virus; assay: Infectivity of ARV-2 strain of AIDS virus in H9 cells (Table 2); assay type: cell-based; details: for % Infection: 15 min preincubation, 24 h
Description: A stock solution of virus containing 3 to 5×10^4 infectious virus particles/ml was preincubated with the various drugs as indicated in Table 2 for 15 minutes. The virus sample was then diluted 4-fold in order to reduce the concentrations of the drugs below levels toxic to H9 cells (see Example 3 below) and mixed with 250,000 H9 cells in a total volume of 1 ml. After 24 hours, the cells were assayed to determine the percentage of the culture expressing viral antigen. This time interval was selected as it allows for only a single round of viral infection to have occurred such that the number of cells infected was a direct reflection of the number of infectious virions present in the original sample.

[2] = system: H9 cells; details: for % Viab (live cells/live & dead) / Viable Cells/ml: 10 min exposure; for % Viab (live cells/live & dead): after 24 h; for Viable Cells/ml: viability after 24 h
Description: The toxicity of the various agents used in the antiviral compositions of the invention to human T4 -lymphocytes (H9 cells and marophages which are the carriers of the AIDS virus) may be relevant to the effectiveness of a drug. This is because killing these cells when present in semen or vaginal fluids may lead to release of virus making it more susceptible to the effects of the drug. With this in mind, the effect of short exposure (10 minutes) of AgSD and other drugs on H9 cells was tested by treating a suspension of H9 cells (1.6×10^6 /ml in HBSS) with […] of each drug or drug combination. After incubating for 10 minutes, the cells were washed twice in thirty volumes of HBSS; resuspended in RPMI 10% FCS+NaPyruvate and plated into 24 well plates at 4×10^5 cells/mi. Cell viability was determined after 24 hours and is reported as numbers of viable cells per ml and viable percentage (live cells/live cells+dead cells) in Table 3A.

[3] = system: macrophages; assay: Rate of killing of macrophage by drugs, trypan-blue (Table 3B); assay type: cell-based, mouse; details: 100 μg; 20 min incubation; control 36% kill
Description: In the experiment, peritonial normal mouse macrophages were enriched by attaching to petri dishes and adjusted to a cell concentration of 5 to 10×10^6 /ml. 0.1 ml aliquots of this suspension were plated in microtiter plates and 10μ and 5μ of each of four samples was added. The control plate received PBS only. After 20 minutes of incubation in a […], the cells were tested for viability using tryphan-blue dye.

[4] = system: Staph. aureus; assay: Antibacterial efficacy of coated I.V. catheters, Bioassay A (Table 8); assay type: cell-based; details: Polyurethane I.V. catheter, silicone matrix coating; 10^4 CFU Staph. aureus
Source text: The coatings were applied by dipping and then drying.
Staph. aureus is used to challenge the I.V. catheter.

[5] = system: Rauscher Leukemia Virus (RLV); assay: Infectivity of Rauscher Leukemia Virus (RVB3) in mice, spleen weight (Table 4); assay type: in vivo, Balb/CICR mice; details: 2% drug in coating solution, 20 days; for Weight of Spleen: average of 6 animals, infected glove control 1,627; for Weight Increase from Control: infected glove control 1,541
Description: In vivo tests were performed using Rauscher Leukemia Virus (RLV), a recognized retrovirus model (see, e.g., Nature 323, 467-469 (1986); Rupecht et al., Proc. Nat'l. Acad. Sci. USA 82, 7733-7737 (1985)) which is used by the FDA in testing drugs for use in treating AIDS. RLV was introduced into Balb/CICR mice in which it infects the spleen. The level of virus infectivity was quantified by determining the weight increase of the mouse spleen after 20 days from infection.
Each treatment was prepared by incubating 1.5 ml Dulbecco's Phosphate Buffered Saline (PBS) for 10 minutes at 37° C. in the finger tip of a latex glove. After incubation, as much as possible of the material was removed from the glove. 0.4 ml of PBS was then introduced into the glove and this was the sample which was introduced into the animals. […] Thus two of the groups only had four animals each that were considered.
[…] Each treatment was prepared by incubating 0.4 ml sterile PBS containing RVB3 (a strain of RLV) for 10 minutes in a glove tip which had previously had one of drugs or straight PBS incubated in it as described above. Three additional controls, a PBS containing glove with no virus, a virus sample not incubated in a glove, and a PBS sample not incubated in a glove were also run.

[6] = system: Candida albicans; assay: Rate of killing of Candida albicans on short exposure (Table 5A); assay type: cell-based; details: 10 minute incubation, control >50,000
Description: 3 ml of Saboraud broth containing 10^5 organism of Candida albicans
were incubated with the above drug. Aliquots were removed at 5 and 10
minute and were subcultured.

[7] = system: Candida albicans; assay: Antifungal efficacy of drug coated gloves against Candida albicans (Table 5B); assay type: cell-based; details: treated glove
Description: Treated glove fingers were draped over the top of culture
tubes with the treated side foring the inside of the cup
shape. Then 3.0 ml of TSB contining 10^3 organisms of Candida
albicans was dispensed in each finger and all placed in the
water bath shaker at 37° C. Samples were removed at 15
minutes, 1 hour, 2 hours, and 4 hours. They were diluted 1-
10 and plated on blood agar in 2.0 ml amounts.

[8] = system: Gonococcus; assay: Killing of Gonococcus (Table 6); assay type: cell-based; details: for Colony Counts in Culture: control >50,000
Description: Drugs were suspended in 5 ml of cultures containing […] of
gonoccccus and incubated. Aliquots were removed at 5 and 10 minute
intervals and subcultured for colony counts.

[9] = system: HSV; assay: Toxicity of drugs for HSV, titer on vero cells (Table 7A); assay type: cell-based; details: 200 μl of 500 μg/ml stock added to 1 ml virus, 20 min at R.T.; for Titer: read after 48 hours
Description: One ml HSV at 3 × 10^6/ml was incubated with 200 μliters of
drugs each 500 μg/ml stock solution. After 20 minutes at
R.T., the virus was titered on monolayers of vero cells,
incubatwd for 2 hours, then overlayed with methyl cellulose.
Virus titers were read after 48 hours. No drug toxicity* was […]

[10] = system: Staph. aureus; assay: Antibacterial efficacy of drug coated gloves against Staph. aureus (Table 9); assay type: cell-based; details: 1% in coating solution
Description: The fingers of latex gloves were washed and dried. They were then sprayed with a fine mist spray of a coating solution to provide a uniform coating of solution on the glove surface, sufficient to provide complete wetting thereof without runoff. The coating solutions were prepared by dissolving 1% Silicate®Medical Adhesive Type A and 1% of the silicone MDX4-4159 in ethyl acetate, followed by dissolving and dispersing the chlorhexidine acetate and silver sulfadiazine, respectively, therein. The coating was air dried for 24 hours and the gloves tested using the following test:
Treated glove fingers were draped over the tops of culture tubes with the treated side with sprayed on coating forming the inside of the cup shape. Then 3.0 ml of TSB containing 10^4 colony forming units of Staph. aureus was dispensed in each finger and all placed in a water bath shaker at 37° C. Samples were removed at 15 minutes, 1 hour, 2 hours, and 4 hours, diluted 1-10, and the solution plated on blood agar in 2.0 ml amounts.

[11] = system: HIV-I; details: 10 minutes exposure; HIBICLENS or HIBISTAT dilutions; C3-44 cells; cited from earlier work

[H]/N=C(\N/C(=N/[H])NCCCCCCNC(=N)NC(=N)Nc1ccc(Cl)cc1)Nc1ccc(Cl)cc1 [CHA, chlorhexidine acetate]
% infection versus control at 2.5 µg/mL ([1]; H9, 24 h, drug during incubation 10 μg/ml, final 2.5 μg/ml, read-out: % Infection v. Control): 108%
% Infection ([1]; drug during incubation 10 μg/ml, final 2.5 μg/ml): 3.35%
condition of cells [2]: Cells in terrible condition.
% Viab (live cells/live & dead) ([2]; 50 (ml/ml as printed in text)): 73%
% Viab (live cells/live & dead) ([2]; 100 (ml/ml as printed in text)): 20%
% Kill [3]: 100%
Days of Activity [4]: 2 days

[H]/N=C(\N/C(=N/[H])NCCCCCCNC(=N)NC(=N)Nc1ccc(Cl)cc1)Nc1ccc(Cl)cc1 [Chlorhexidine, chlorhexidine]
viral infectivity ([1]; 10 μg/ml): did not itself reduce viral infectivity
effectiveness for reducing infectivity of AIDS virus ([1]; low concentrations, combination compared with AgSD alone): no effect on infectivity of AIDS virus
Weight of Spleen [5]: 234 mg
Weight Increase from Control [5]: 148 mg
Colony Counts in Culture ([6]; concentration 100 (unit not given)): 30
Colony Counts in Culture ([7]; 1 Hour, control 2,000): 0
Colony Counts in Culture ([7]; 2 Hours, control 4,000): 0
Colony Counts in Culture ([7]; 4 Hours, control 6,000): 0
Colony Counts in Culture ([7]; 15 Minutes, control 1,400): 75
Colony Counts in Culture ([8]; 100 μg/ml, 5 Minutes): 2,000
Colony Counts in Culture ([8]; 100 μg/ml, 10 Minutes): 10
% Inhibition [9]: 0%
Titer [9]: 2.7 × 10^6
Colony Counts in Culture ([10]; 15 min., control 12,000): 100
Colony Counts in Culture ([10]; 1 hour, control 15,000): 0
Colony Counts in Culture ([10]; 2 hours, control 20,000): 0
Colony Counts in Culture ([10]; 4 hours, control 50,000): 0

CC(=O)O[C@H]1C[C@@]2(C)[C@@H](C[C@@H](O)[C@H]3[C@@]4(C)CC[C@@H](O)[C@@H](C)[C@@H]4CC[C@@]32C)/C1=C(\CCC=C(C)C)C(=O)O [Fusidic acid]
Weight of Spleen [5]: 107 mg
Weight Increase from Control [5]: 21 mg

C[C@H](CCC(=O)O)[C@H]1CC[C@H]2[C@@H]3CC[C@@H]4C[C@H](O)CC[C@]4(C)[C@H]3C[C@H](O)[C@]12C [NaDC, sodium deoxycholate]
% infection versus control at 10 µg/mL ([1]; H9, 24 h, read-out: % Infection v. Control): 108%
% Infection ([1]; drug during incubation 40 μg/ml, final 10.0 μg/ml): 3.35%
% Viab (live cells/live & dead) ([2]; 50 (ml/ml as printed in text)): 73%
Viable Cells/ml ([2]; 50 (ml/ml as printed in text)): 1.2 × 10^6 Cells/ml
% Viab (live cells/live & dead) ([2]; 100 (ml/ml as printed in text)): 44%
Viable Cells/ml ([2]; 100 (ml/ml as printed in text)): 2.0 × 10^6 Cells/ml
Weight of Spleen [5]: 109 mg
Weight Increase from Control [5]: 23 mg
Colony Counts in Culture ([6]; concentration 1,000 (unit not given)): 8,000
Colony Counts in Culture ([8]; 1,000 μg/ml, 5 Minutes): 12,000
Colony Counts in Culture ([8]; 1,000 μg/ml, 10 Minutes): 4,000
% Inhibition [9]: 0%
Titer [9]: 3.2 × 10^6

N=C(NCCCCCCNC(=N)NC(=N)Nc1ccc(Cl)cc1)NC(=N)Nc1ccc(Cl)cc1.O=C(O)[C@H](O)[C@@H](O)[C@H](O)[C@H](O)CO.O=C(O)[C@H](O)[C@@H](O)[C@H](O)[C@H](O)CO [chlorohexidine gluconate]
concentration not effective to prevent HIV-I infection [11]: ≤ 0.01%

benzalkonium chloride
% Inhibition [9]: 98%
Titer [9]: 5.2 × 10^4

nonoxynol
Colony Counts in Culture ([6]; 0.2%): > 50,000
Colony Counts in Culture ([8]; 0.1%, 5 Minutes): 40
Colony Counts in Culture ([8]; 0.1%, 10 Minutes): 70
effectiveness against gonococcus ([8]; general statement): effective against gonococcus
